This is an account of results in US11014908B2, “Chemical compounds” (Pfizer Inc., priority 2018, dated 2021).

The target of assay [1] is T1, purified sickle cell hemoglobin (HbS) (Homo sapiens, UniProt P68871+P69905, E7V).
T1 construct: HbS was obtained from the blood of homozygous S/S patients; from tissue; host or cells: red blood cells of homozygous S/S patients
The assay can be described thus: Binding affinity to purified HbS by Surface Plasmon Resonance (SPR). The following applies: crosslinked biotinylated HbS, 1:1 binding model. The method in brief: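 Patient-derived HbS, purified and crosslinked between beta subunits (Lys82-Lys82), biotinylated and captured on streptavidin sensor at 4000–5000 RU. Running buffer 100 mM potassium phosphate pH 7.5, 1 mM EDTA, 0.1 mg/mL BSA, 1% DMSO; 2 min association, ≥5 min dissociation, ≥4 concentrations; Kd from 1:1 model fit.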

The next assay addresses T2, HbS (Homo sapiens, UniProt P68871+P69905, E7V).
T2 construct: HbS was obtained from the blood of homozygous S/S patients; from tissue; host or cells: red blood cells of homozygous S/S patients
Kind of assay: HbS polymerization assay (delay time). The class given is biochemical. To be noted: 0.15 mM HbS, n=3, vs DMSO; for Increase in DT for 25% HbS Occ: 0.075 mM compound. The source says: This assay is used to determine the degree of inhibition of polymerization of HbS by compounds of the invention at varying degrees of HbS occupancy. The method used for the assay was adapted from that described in He and Russell (He, Z. and J. E. Russell, “A high-Throughput Microplate Method for Assessing Aggregation of Deoxygenated Hemoglobin S Heterotetramers in Vitro”, Anal Biochem 306(2): 349-352 (2002)).
Purified HbS was exchanged into 1.25 M potassium phosphate, pH=7.4 and concentrated to 1.1 mM. The hemoglobin concentration was fixed at 0.15 mM, and the HbS was diluted to the appropriate concentration using 1.25 M potassium phosphate, pH=7.4. The compound of the invention was added to 0.15 mM HbS in the following concentrations: […], 0.075 mM (25%) and 0.15 mM (50%). As these compounds are ditopic binders, the concentration was doubled to calculate the % coverage, ie. 0.15*0.5=0.075*2=0.15. DMSO concentrations were matched for all compound concentrations, as well as no-compound control, and HbA. Following incubation, 33.5 μL of HbS solution was added to each well of a Costar 96-well half area plate. To induce deoxygenation, 16.5 μL of 1 M sodium dithionite, prepared in 1.25 M potassium phosphate, was added to each well for a final assay concentration of 330 mM, and mixed thoroughly. Fifty μL of mineral oil was overlaid over the solution in each well to prevent reoxygenation, and the plate was placed at 4° C. for five minutes. Following cold incubation, the plates were placed in a spectrophotometer that had been equilibrated at 37° C., to initiate the polymerization process (temperature jump). The reaction was monitored at 700 nm for 40 minutes, with data points collected every 30 seconds. Four wells were used for each condition, and the data averaged at every point for analysis. Data was analyzed using Graph Pad Prism, and the data was fit to a Boltzman sigmoidal equation, in which V50 (t1/2) was taken as the delay time. The percent change was calculated using the DMSO as the initial delay time. Error in percent change was compounded using the V50 errors generated when fit to the Boltzman sigmoidal equation.
Delay in HbS polymerization, as measured by increasing delay time as a function of % HbS occupancy (% HbS Occ), is reported in Table 5 below as the increase in delay time (DT) for 10%, 25% and 50% HbS occupancy (n=3).

A further assay concerns Hb in mouse whole blood. The assay can be described thus: Whole blood oxygen affinity assay (Hemox analyzer), mouse blood. The following applies: 1 mM compound, 1 hour at 25 C, relative to DMSO. An excerpt: Whole Blood Oxygen Affinity Assay
Oxygen affinity is a marker of the ability of Hb to bind and release oxygen in solution. It can be determined in whole blood by measuring the percentage of oxygenated and deoxygenated Hb present at a given oxygen concentration. Oxygen affinity is expressed as the p50, the partial pressure of oxygen at which 50% of the Hb in solution has oxygen bound, or the p20, the partial pressure of oxygen at which 20% of the Hb in solution has oxygen bound.
To determine the effects of compounds of the invention on oxygen affinity the p50 and p20 were measured in human, dog, and mouse whole blood using a Hemeox Analyzer (TCS Scientific). The blood was spiked with a compound of the invention to a concentration of 1 mM and incubated for 1 hour at 25 C with constant rotation. A concentration of 1 mM of compound was selected to approximate 20% hemoglobin occupancy in whole blood. Controls with the same concentration of DMSO, but no compound were incubated in the same way at the same time. Following incubation, samples were immediately assayed for oxygen affinity using the Hemox analyzer. […] Once samples had reached an pO2 of >150 torr, the measurement was initiated by switching to N2, and the percent oxyhemoglobin as a function of partial pressure was recorded. The p20 and p50 of each sample were recorded from the instrument readout. […]

`C[C@H](Oc1cc2cc(F)cc(F)c2nc1N)c1cc(C(=O)O)ccc1-n1cccn1` [Example 21, 3-{(1S)-1-[(2-amino-6,8-difluoroquinolin-3-yl)oxy]ethyl}-4-(1H-pyrazol-1-yl)benzoic Acid] registered a Kd in assay [1] of 37 nM. Also, the “Increase in DT for 25% HbS Occ” value on HbS came out at 64 ± 6%.

Take `C[C@H](Oc1cc2cc(F)ccc2nc1N)c1nc(O)ccc1-n1cccn1` [Example 58, 6-{(1S)-1-[(2-amino-6-fluoroquinolin-3-yl)oxy]ethyl}-5-(1H-pyrazol-1-yl)pyridin-2-ol]: binding in assay [1] was put at a Kd of 34 nM. The “Increase in DT for 10% HbS Occ” value at HbS (0.03 mM compound) amounted to 18 ± 5%. The “Increase in DT for 25% HbS Occ” value on HbS amounted to 70 ± 8%. Besides, the “Increase in DT for 50% HbS Occ” value at HbS (0.15 mM compound) was determined as 74 ± 21%. In the assay with Hb in mouse whole blood, the “Reduction in p20 (%) Mouse” value is on record as 11 ± 2% and the “Reduction in p50 (%) Mouse” value is reported as 5 ± 3%.
